Test results: patent US20250179073A1, “TRICYCLIC HETEROCYCLE COMPOUNDS AS IAP ANTAGONISTS” (Ascentage Pharma (Suzhou) Co., Ltd., priority 2022, published 2025)

Columns and labels:
[1] = tested on: MDA-MB-231 cells; assay: Cell proliferation assay (CellTiter-Glo), MDA-MB-231; format: cell-based; settings: Homo sapiens, MDA-MB-231, 72 h, 72 h treatment, Celltiter-Glo luminescence
In short: (§1)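 Compounds tested over ten concentrations ([…]) for 72 h on EVSA-T cells in MEM/10% FBS and MDA-MB-231 cells in RPMI-1640/10% FBS, seeded at 10000/well. Luminescent CellTiter-Glo readout; IC50 fitted after normalisation to controls.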

[2] = tested on: EVSA-T cells; assay: Cell proliferation assay (CellTiter-Glo), EVSA-T; format: cell-based; settings: Homo sapiens, EVSA-T, 72 h, 72 h treatment, Celltiter-Glo luminescence
In short: as §1

SMILES	IC50 [1] [nM]	IC50 [2] [nM]
C[C@@H]1CN(CC(=O)N2CC(C)(C)c3c2cc(Cc2ccc(F)cc2)c2nc(C#N)cn32)[C@@H](CN2CCOC[C@H]2C)CN1 [Example 21, 4-(4-fluorobenzyl)-8,8-dimethyl-6-(2-((2R,5R)-5-methyl-2-(((R)-3-methylmorpholino)methyl)piperazin-1-yl)acetyl)-7,8-dihydro-6H-imidazo[1,2-a]pyrrolo[2,3-e]pyridine-2-carbonitrile]	23	5
CC(O)Cn1nc2c(Cc3ccc(F)cc3)cc3c(n2c1=O)C(C)(C)CN3C(=O)CN1C[C@@H](C)NC[C@@H]1CN1CCOC[C@H]1C (stereo partly drawn) [Compound 269, 4-(4-fluorobenzyl)-2-(2-hydroxypropyl)-8,8-dimethyl-6-(2-((2R,5R)-5-methyl-2-(((R)-3-methylmorpholino)methyl)piperazin-1-yl)acetyl)-2,6,7,8-tetrahydro-1H-pyrrolo[2,3-e][1,2,4]triazolo[4,3-a]pyridin-1-one]	10	5.1
COc1cc(F)ccc1Cc1cc2c(n3ncnc13)C(C)(C)CN2C(=O)CN1C[C@@H](C)NC[C@@H]1CN1CCOC[C@H]1C [Compound 41, 1-(4-(4-fluoro-2-methoxybenzyl)-8,8-dimethyl-7,8-dihydro-6H-pyrrolo[2,3-e][1,2,4]triazolo[1,5-a]pyridin-6-yl)-2-((2R,5R)-5-methyl-2-(((R)-3-methylmorpholino)methyl)piperazin-1-yl)ethan-1-one]	78	14
COC(=O)N(C)c1nc2c(Cc3ccc(F)cc3)cc3c(n2n1)C(C)(C)CN3C(=O)CN1C[C@@H](C)NC[C@@H]1CN1CCOC[C@H]1C [Compound 225, methyl (4-(4-fluorobenzyl)-8,8-dimethyl-6-(2-((2R,5R)-5-methyl-2-(((R)-3-methylmorpholino)methyl)piperazin-1-yl)acetyl)-7,8-dihydro-6H-pyrrolo[2,3-e][1,2,4]triazolo[1,5-a]pyridin-2-yl)(methyl)carbamate]	50	2
C[C@@H]1CN(CC(=O)N2CC(C)(C)c3c2cc(Cc2ccc(F)cc2)c2ncnn32)[C@@H](CN2Cc3ncccc3C2=O)CN1 [Compound 95, 6-(((2R,5R)-1-(2-(4-(4-fluorobenzyl)-8,8-dimethyl-7,8-dihydro-6H-pyrrolo[2,3-e][1,2,4]triazolo[1,5-a]pyridin-6-yl)-2-oxoethyl)-5-methylpiperazin-2-yl)methyl)-6,7-dihydro-5H-pyrrolo[3,4-b]pyridin-5-one]	12	0.4
C[C@@H]1CN(CC(=O)N2CC(C)(C)c3c2cc(Cc2ccc(F)cc2)c2nn(CC(F)F)c(=O)n32)[C@@H](CN2CCOC[C@H]2C)CN1 [Compound 264, 2-(2,2-difluoroethyl)-4-(4-fluorobenzyl)-8,8-dimethyl-6-(2-((2R,5R)-5-methyl-2-(((R)-3-methylmorpholino)methyl)piperazin-1-yl)acetyl)-2,6,7,8-tetrahydro-1H-pyrrolo[2,3-e][1,2,4]triazolo[4,3-a]pyridin-1-one]	15	4.7
C[C@@H]1CN(CC(=O)N2CC(C)(C)c3c2cc(Cc2ccc(F)cc2)c2nn(CC#N)c(=O)n32)[C@@H](CN2CCOC[C@H]2C)CN1 [Compound 185, 2-(4-(4-fluorobenzyl)-8,8-dimethyl-6-(2-((2R,5R)-5-methyl-2-(((R)-3-methylmorpholino)methyl)piperazin-1-yl)acetyl)-1-oxo-7,8-dihydro-1H-pyrrolo[2,3-e][1,2,4]triazolo[4,3-a]pyridin-2(6H)-yl)acetonitrile]	23	7
Cc1ncc(Cc2cc3c(n4ncnc24)C(C)(C)CN3C(=O)CN2C[C@@H](C)NC[C@@H]2CN2CCOC[C@H]2C)s1 [Compound 132, 1-(8,8-dimethyl-4-((2-methylthiazol-5-yl)methyl)-7,8-dihydro-6H-pyrrolo[2,3-e][1,2,4]triazolo[1,5-a]pyridin-6-yl)-2-((2R,5R)-5-methyl-2-(((R)-3-methylmorpholino)methyl)piperazin-1-yl)ethan-1-one]	220	56
C[C@@H]1CN(CC(=O)N2CC(C)(C)c3c2cc(Cc2ccc(F)cc2)c2nn(Cc4cccc(F)n4)c(=O)n32)[C@@H](CN2CCOC[C@H]2C)CN1 [Compound 219, 4-(4-fluorobenzyl)-2-((6-fluoropyridin-2-yl)methyl)-8,8-di methyl-6-(2-((2R,5R)-5-methyl-2-(((R)-3-methylmorpholino)methyl)piperazin-1-yl)acetyl)-2,6,7,8-tetrahydro-1H-pyrrolo[2,3-e][1,2,4]triazolo[4,3-a]pyridin-1-one]	47	2
CC(O)c1nc2c(Cc3ccc(F)cc3)cc3c(n2n1)C(C)(C)CN3C(=O)CN1C[C@@H](C)NC[C@@H]1CN1CCOC[C@H]1C (stereo partly drawn) [Compound 154, 1-(4-(4-fluorobenzyl)-2-(1-hydroxyethyl)-8,8-dimethyl-7,8-dihydro-6H-pyrrolo[2,3-e][1,2,4]triazolo[1,5-a]pyridin-6-yl)-2-((2R,5R)-5-methy 1-2-(((R)-3-methylmorpholino)methyl)piperazin-1-yl)ethan-1-one]	100	5
CCOC(=O)c1cn2c3c(cc(Cc4ccc(F)cc4)c2n1)N(C(=O)CN1C[C@@H](C)NC[C@@H]1CN1CCOC[C@H]1C)CC3(C)C [Example 18, ethyl 4-(4-fluorobenzyl)-8,8-dimethyl-6-(2-((2R,5R)-5-methyl-2-(((R)-3-methylmorpholino)methyl)piperazin-1-yl)acetyl)-7,8-dihydro-6H-imidazo[1,2-a]pyrrolo[2,3-e]pyridine-2-carboxylate]	74	14
C[C@@H]1CN(CC(=O)N2CC(C)(C)c3c2cc(Cc2ccc(F)cc2)c2nn(Cc4ccncc4)c(=O)n32)[C@@H](CN2CCOC[C@H]2C)CN1 [Compound 254, 4-(4-fluorobenzyl)-8,8-dimethyl-6-(2-((2R,5R)-5-methyl-2-(((R)-3-methylmorpholino)methyl)piperazin-1-yl)acetyl)-2-(pyridin-4-ylmethyl)-2,6,7,8-tetrahydro-1H-pyrrolo[2,3-e][1,2,4]triazolo[4,3-a]pyridin-1-one]	69	3.8
C[C@@H]1CN(CC(=O)N2CC(C)(C)c3c2cc(Cc2ccc(F)cc2)c2ncnn32)[C@@H](CN2CCC(C)(O)C[C@H]2C)CN1 (stereo partly drawn) [Compound 77, 1-(4-(4-fluorobenzyl)-8,8-dimethyl-7,8-dihydro-6H-pyrrolo[2,3-e][1,2,4]triazolo[1,5-a]pyridin-6-yl)-2-((2R,5R)-2-(((2R)-4-hydroxy-2,4-dimethylpiperidin-1-yl)methyl)-5-methylpiperazin-1-yl)ethan-1-one]	70	5
C[C@@H]1CN(CC(=O)N2CC(C)(C)c3c2cc(Cc2ccc(F)cc2)c2nn(CC(C)(C)O)c(=O)n32)[C@@H](CN2CCN(CC(F)(F)F)C[C@H]2C)CN1 [Compound 266, 4-(4-fluorobenzyl)-2-(2-hydroxy-2-methylpropyl)-8,8-dim ethyl-6-(2-((2R,5R)-5-methyl-2-(((R)-2-methyl-4-(2,2,2-trifluoroethyl)piperazin-1-yl)methyl)piperazin-1-yl)acetyl)-2,6,7,8-tetrahydro-1H-pyrrolo[2,3-e][1,2,4]triazolo[4,3-a]pyridin-1-one]	16	4.9
Cc1nc(C#N)c2c(Cc3ccc(F)cc3)cc3c(n12)C(C)(C)CN3C(=O)CN1C[C@@H](C)NC[C@@H]1CN1CCOC[C@H]1C [Compound 130, 4-(4-fluorobenzyl)-1,8,8-trimethyl-6-(2-((2R,5R)-5-methyl-2-(((R)-3-methylmorpholino)methyl)piperazin-1-yl)acetyl)-7,8-dihydro-6H-imidazo[1,5-a]pyrrolo[2,3-e]pyridine-3-carbonitrile]	230	37
C[C@@H]1CN(CC(=O)N2CC(C)(C)c3c2cc(Cc2ccc(F)cc2)c2cnnn32)[C@@H](CN2CCOC[C@H]2C)CN1 [Compound 128, 1-(4-(4-fluorobenzyl)-8,8-dimethyl-7,8-dihydro-6H-pyrrolo[2,3-e][1,2,3]triazolo[1,5-a]pyridin-6-yl)-2-((2R,5R)-5-methyl-2-(((R)-3-methylmorpholino)methyl)piperazin-1-yl)ethan-1-one]	12	2
C[C@@H]1CN(CC(=O)N2CC(C)(C)c3c2cc(Cc2ccc(F)cc2)c2nc(CO)nn32)[C@@H](CN2CCOC[C@H]2C)CN1 [Compound 37, 1-(4-(4-fluorobenzyl)-2-(hydroxymethyl)-8,8-dimethyl-7,8-dihydro-6H-pyrrolo[2,3-e][1,2,4]triazolo[1,5-a]pyridin-6-yl)-2-((2R,5R)-5-methyl-2-(((R)-3-methylmorpholino)methyl)piperazin-1-yl)ethan-1-one]	71	4
C[C@@H]1CN(CC(=O)N2CC(C)(C)c3c2cc(Cc2ccc(F)cc2)c2nc(C(F)F)cn32)[C@@H](CN2CCOC[C@H]2C)CN1 [Compound 122, 1-(2-(difluoromethyl)-4-(4-fluorobenzyl)-8,8-dimethyl-7,8-dihydro-6H-imidazo[1,2-a]pyrrolo[2,3-e]pyridin-6-yl)-2-((2R,5R)-5-methyl-2-(((R)-3-methylmorpholino)methyl)piperazin-1-yl)ethan-1-one]	65	6
C[C@@H]1CN(CC(=O)N2CC(C)(C)c3c2cc(Cc2ccc(F)cc2)c2nc(C(C)(C)O)nn32)[C@@H](CN2CCOC[C@H]2C)CN1 [Compound 137, 1-(4-(4-fluorobenzyl)-2-(2-hydroxypropan-2-yl)-8,8-dimethyl-7,8-dihydro-6H-pyrrolo[2,3-e][1,2,4]triazolo[1,5-a]pyridin-6-yl)-2-((2R,5R)-5-methyl-2-(((R)-3-methylmorpholino)methyl)piperazin-1-yl)ethan-1-one]	190	12
